Structures are written as SMILES. pIC50: −log10 of the molar value.

Proteasome chymotrypsin-like activity (S26 protein from RPMI8226 cells), sequence (P28074 60-263 limits assumed): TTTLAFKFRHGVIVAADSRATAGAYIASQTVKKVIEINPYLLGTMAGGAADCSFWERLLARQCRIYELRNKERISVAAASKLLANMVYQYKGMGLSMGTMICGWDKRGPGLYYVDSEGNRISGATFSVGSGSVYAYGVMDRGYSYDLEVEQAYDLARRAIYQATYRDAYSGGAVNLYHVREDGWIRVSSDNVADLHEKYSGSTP

This assay addresses Proteasome chymotrypsin-like activity (S26 protein from RPMI8226 cells) (Homo sapiens, UniProt P28074). It is filed as biochemical. As to conditions: S26 protein from RPMI8226 cell extract 2 ug/well, substrate 20 uM, 37° C., 90 minutes; read-out: Proteasome chymotrypsin-like activity inhibition IC50. The essentials:
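RPMI8226 myeloma cell lysate (S26 fraction, 20 mM Tris-HCl pH 8.0; 2 ug/well) incubated with compound serially diluted from 10 uM (0.5% DMSO) and 20 uM Suc-LLVY-AMC (chymotrypsin-like) or Z-LLE-AMC (caspase-like) for 90 min at 37 °C. Fluorescence read; IC50 from % of uninhibited signal.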
Turning to `CC(C)C[C@H](NC(=O)C12CCCC1C(CNC(=O)c1cccn3ccnc13)=NO2)B(O)O` (stereo partly drawn) [Example 199, ((1R)-1-(3-((imidazo[1,2-a]pyridin-8-carboxamido)methyl)-3a,5,6,6a-tetrahydro-4H-cyclopenta[d]isoxazol-6a-carboxamido)-3-methylbutyl)boronic acid], the negative-log IC50 (pIC50) is above 6.00.

Consider `CC(C)C[C@H](NC(=O)[C@]1(Cc2ccccc2)CC(c2ccccc2)=NO1)B(O)O` [Example 7, ((R)-1-((S)-5-benzyl-3-phenyl-4,5-dihydroisoxazol-5-carboxamido)-3-methylbutyl)boronic acid], for which the pIC50 is above 6.30.

For `CC(C)C[C@H](NC(=O)C1CC(c2cccc(-c3ccccn3)c2)=NO1)B(O)O` (stereo partly drawn) [Example 34, ((1R)-3-methyl-1-(3-(3-(pyridin-2-yl)phenyl)-4,5-dihydroisoxazol-5-carboxamido)butyl)boronic acid], the pIC50 is above 7.00.

In the case of `CC(C)C[C@H](NC(=O)C1(Cc2ccccc2)CC(CNC(=O)c2cccn3c(Cl)cnc23)=NO1)B(O)O` (stereo partly drawn) [Example 142, ((1R)-1-(5-benzyl-3-((3-chloroimidazo[1,2-a]pyridin-8-carboxamido)methyl)-4,5-dihydroisoxazol-5-carboxamido)-3-methylbutyl)boronic acid], the pIC50 is above 8.00.

For `CC[C@H](NC(=O)C1(Cc2ccccc2)CC(CNC(=O)c2cccc3ccccc23)=NO1)B(O)O` (stereo partly drawn) [Example 303, ((1R)-1-(3-((1-naphthamido)methyl)-5-benzyl-4,5-dihydroisoxazol-5-carboxamido)propyl)boronic acid], the negative-log IC50 (pIC50) is above 8.00.

Regarding `CC(C)C[C@H](NC(=O)C1CC(c2cccc(-c3ccccc3)c2)=NO1)B(O)O` (stereo partly drawn) [Example 20, ((1R)-1-(3-([1,1′-biphenyl]-3-yl)-4,5-dihydroisoxazol-5-carboxamido)-3-methylbutyl)boronic acid], the negative logarithm of the IC50 (pIC50) was above 6.60.

For the compound `CC(C)C[C@H](NC(=O)C1CC(CNC(=O)c2cnccn2)=NO1)B(O)O` (stereo partly drawn) [Example 83, ((1R)-3-methyl-1-(3-((pyrazin-2-carboxamido)methyl)-4,5-dihydroisoxazol-5-carboxamido)butyl)boronic acid], the pIC50 is above 6.60.

Consider `CC(C)C[C@H](NC(=O)C1CC(C(=O)Nc2cccc(Cl)c2)=NO1)B(O)O` (stereo partly drawn) [Example 77, ((1R)-1-(3-((3-chlorophenyl)carbamoyl)-4,5-dihydroisoxazol-5-carboxamido)-3-methylbutyl)boronic acid], for which the negative-log IC50 (pIC50) is above 6.60.

Take `CC(C)C[C@H](NC(=O)C1(CC(C)C)CC(CNC(=O)c2nccc3ccccc23)=NO1)B(O)O` (stereo partly drawn) [Example 91, ((1R)-1-(5-isobutyl-3-((isoquinolin-1-carboxamido)methyl)-4,5-dihydroisoxazol-5-carboxamido)-3-methylbutyl)boronic acid]: the negative logarithm of the IC50 (pIC50) was above 7.60.

Consider `CC(C)C[C@H](NC(=O)C1(Cc2cccc(Cl)c2)CC(CNC(=O)c2cc(-c3ccccc3)nn2C(C)C)=NO1)B(O)O` (stereo partly drawn) [Example 249, ((1R)-1-(5-(3-chlorobenzyl)-3-((1-isopropyl-3-phenyl-1H-pyrazol-5-carboxamido)methyl)-4,5-dihydroisoxazol-5-carboxamido)-3-methylbutyl)boronic acid], for which the negative logarithm of the IC50 (pIC50) was above 8.00.

For the compound `O=C(NCC1=NOC(Cc2ccccc2)(C(=O)N[C@@H](Cc2ccccc2)B(O)O)C1)c1cccn2ccnc12` (stereo partly drawn) [Example 300, ((1R)-1-(5-benzyl-3-((imidazo[1,2-a]pyridin-8-carboxamido)methyl)-4,5-dihydroisoxazol-5-carboxamido)-2-phenylethyl)boronic acid], the negative logarithm of the IC50 (pIC50) was above 8.00.

On to `CC(C)[C@H](NC(=O)C1(Cc2ccccc2)CC(CNC(=O)c2nccc3ccccc23)=NO1)B(O)O` (stereo partly drawn) [Example 290, ((1R)-1-(5-benzyl-3-((isoquinolin-1-carboxamido)methyl)-4,5-dihydroisoxazol-5-carboxamido)-2-methylpropyl)boronic acid], for which the negative logarithm of the IC50 (pIC50) was above 8.00.

With `CC(C)C[C@H](NC(=O)C1CC(c2cccc(OC(F)(F)F)c2)=NO1)B(O)O` (stereo partly drawn) [Example 37, ((1R)-3-methyl-1-(3-(3-(trifluoromethoxy)phenyl)-4,5-dihydroisoxazol-5-carboxamido)butyl)boronic acid], the negative logarithm of the IC50 (pIC50) was above 6.30.

On to `CC(C)C[C@H](NC(=O)C1(Cc2ccccc2)CC(COCc2cccc(Br)c2)=NO1)B(O)O` (stereo partly drawn) [Example 52, ((1R)-1-(5-benzyl-3-(((3-bromobenzyl)oxy)methyl)-4,5-dihydroisoxazol-5-carboxamido)-3-methylbutyl)boronic acid], for which the pIC50 is above 8.00.

Regarding `CC(C)C[C@H](NC(=O)C1CC(c2ccc(C(C)(C)C)cc2)=NO1)B(O)O` (stereo partly drawn) [Example 15, ((1R)-1-(3-(4-(tert-butyl)phenyl)-4,5-dihydroisoxazol-5-carboxamido)-3-methylbutyl)boronic acid], the negative logarithm of the IC50 (pIC50) is above 6.60.

As for `CC(C)C[C@H](NC(=O)C1(Cc2ccccc2)CC(CNC(=O)c2cc(F)c(F)cc2Cl)=NO1)B(O)O` (stereo partly drawn) [Example 163, ((1R)-1-(5-benzyl-3-((2-chloro-4,5-difluorobenzamido)methyl)-4,5-dihydroisoxazol-5-carboxamido)-3-methylbutyl)boronic acid], the pIC50 was above 8.00.

Regarding `CC(C)[C@H](NC(=O)C1(Cc2ccccc2)CC(CNC(=O)c2cccn3ccnc23)=NO1)B(O)O` (stereo partly drawn) [Example 298, ((1R)-1-(5-benzyl-3-((imidazo[1,2-a]pyridin-8-carboxamido)methyl)-4,5-dihydroisoxazol-5-carboxamido)-2-methylpropyl)boronic acid], the pIC50 was above 8.00.

Turning to `CC(C)C[C@H](NC(=O)C1(C2(c3ccccc3)CC2)CC(CNC(=O)c2nccc3ccccc23)=NO1)B(O)O` (stereo partly drawn) [Example 180, ((1R)-1-(3-((isoquinolin-1-carboxamido)methyl)-5-(1-phenylcyclopropyl)-4,5-dihydroisoxazol-5-carboxamido)-3-methylbutyl)boronic acid], the negative logarithm of the IC50 (pIC50) was above 7.30.

For `CC(C)C[C@H](NC(=O)C1(Cc2ccccc2)CC(COCc2cc(Cl)ccc2Cl)=NO1)B(O)O` (stereo partly drawn) [Example 45, ((1R)-1-(5-benzyl-3-(((2,5-dichlorobenzyl)oxy)methyl)-4,5-dihydroisoxazol-5-carboxamido)-3-methylbutyl)boronic acid], the negative-log IC50 (pIC50) is above 8.00.

For the compound `CC(C)C[C@H](NC(=O)C1(Cc2ccccc2)CC(CNC(=O)C2(c3ccccc3)CC2)=NO1)B(O)O` (stereo partly drawn) [Example 118, ((1R)-1-(5-benzyl-3-((1-phenylcyclopropan-1-carboxamido)methyl)-4,5-dihydroisoxazol-5-carboxamido)-3-methylbutyl)boronic acid], the pIC50 was above 7.60.

For the compound `CC(C)C[C@H](NC(=O)C1(Cc2ccccc2)CC(COc2cccc3ccccc23)=NO1)B(O)O` (stereo partly shown) [Example 278], the negative-log IC50 (pIC50) was above 8.00.

As to `CC(C)C[C@H](NC(=O)C1(Cc2ccccc2)CC(CNC(=O)c2cc(-c3cccnc3)nn2C(C)C)=NO1)B(O)O` (stereo partly drawn) [Example 228, ((1R)-1-(5-benzyl-3-((1-isopropyl-3-(pyridin-3-yl)-1H-pyrazol-5-carboxamido)methyl)-4,5-dihydroisoxazol-5-carboxamido)-3-methylbutyl)boronic acid], the pIC50 is above 8.00.

For `COc1ccc(COCC2=NOC(Cc3ccccc3)(C(=O)N[C@@H](CC(C)C)B(O)O)C2)cc1` (stereo partly shown) [Example 274], the negative-log IC50 (pIC50) was above 7.00.

On to `CC(C)C[C@H](NC(=O)C1(Cc2ccccc2Cl)CC(CNC(=O)c2nccc3ccccc23)=NO1)B(O)O` (stereo partly drawn) [Example 102, ((1R)-1-(5-(2-chlorobenzyl)-3-((isoquinolin-1-carboxamido)methyl)-4,5-dihydroisoxazol-5-carboxamido)-3-methylbutyl)boronic acid], for which the negative-log IC50 (pIC50) is above 8.00.

Turning to `Cc1cccc(CC2(C(=O)N[C@@H](CC(C)C)B(O)O)CC(CNC(=O)c3ccnn3C(C)C)=NO2)c1` (stereo partly drawn) [Example 242, ((1R)-1-(3-((1-isopropyl-1H-pyrazol-5-carboxamido)methyl)-5-(3-methylbenzyl)-4,5-dihydroisoxazol-5-carboxamido)-3-methylbutyl)boronic acid], the pIC50 was above 8.00.

In the case of `Cc1nn(C(C)C)c(C(=O)NCC2=NOC(Cc3cccc(Cl)c3)(C(=O)N[C@@H](CC(C)C)B(O)O)C2)c1Cl` (stereo partly drawn) [Example 248, ((1R)-1-(3-((4-chloro-1-isopropyl-3-methyl-1H-pyrazol-5-carboxamido)methyl)-5-(3-chlorobenzyl)-4,5-dihydroisoxazol-5-carboxamido)-3-methylbutyl)boronic acid], the negative logarithm of the IC50 (pIC50) is above 8.00.

In the case of `Cc1cccc(CC2(C(=O)N[C@@H](CC(C)C)B(O)O)CC(CNC(=O)c3cccn4ccnc34)=NO2)c1` (stereo partly drawn) [Example 238, ((1R)-1-(3-((imidazo[1,2-a]pyridin-8-carboxamido)methyl)-5-(3-methylbenzyl)-4,5-dihydroisoxazol-5-carboxamido)-3-methylbutyl)boronic acid], the negative-log IC50 (pIC50) was above 8.00.

With `N#Cc1cccc(C(=O)NCC2=NOC(Cc3ccccc3)(C(=O)N[C@@H](Cc3ccccc3)B(O)O)C2)c1` (stereo partly drawn) [Example 317, ((1R)-1-(5-benzyl-3-((3-cyanobenzamido)methyl)-4,5-dihydroisoxazol-5-carboxamido)-2-phenylethyl)boronic acid], the negative logarithm of the IC50 (pIC50) was above 8.00.

With `CC(C)C[C@H](NC(=O)C1(Cc2ccccc2)CC(CNC(=O)c2cc(-c3ccncc3)nn2C(C)C)=NO1)B(O)O` (stereo partly drawn) [Example 229, ((1R)-1-(5-benzyl-3-((1-isopropyl-3-(pyridin-4-yl)-1H-pyrazol-5-carboxamido)methyl)-4,5-dihydroisoxazol-5-carboxamido)-3-methylbutyl)boronic acid], the pIC50 is above 8.00.

Consider `CC(C)C[C@H](NC(=O)C1(Cc2ccccc2)CC(CNC(=O)c2ccnnc2)=NO1)B(O)O` (stereo partly drawn) [Example 166, ((1R)-1-(5-benzyl-3-((pyridazin-4-carboxamido)methyl)-4,5-dihydroisoxazol-5-carboxamido)-3-methylbutyl)boronic acid], for which the pIC50 is above 7.60.

Consider `Cc1cc(COCC2=NOC(Cc3ccccc3)(C(=O)N[C@@H](CC(C)C)B(O)O)C2)ccn1` (stereo partly shown) [Example 276], for which the negative logarithm of the IC50 (pIC50) is above 8.00.
